Earlier results on 2 compounds are cited in patent US20250364101A1, “Dabigatran Dosing” (Closed Loop Medicine Ltd, priority 2023, published 2025).

Experiment in data set [1]: not given
This is another data set of the same source.

Experiment in data set [2]: not given
This is another data set of the same source.

Molecules are shown by their SMILES. Like-named read-outs stand apart in the source and are kept apart here.

For `CCCCCCOC(=O)NC(=N)c1ccc(NCc2nc3cc(C(=O)N(CCC(=O)OCC)c4ccccn4)ccc3n2C)cc1` [Dabigatran etexilate], the “risk of intracranial bleeds” value (compared with adjusted-dose warfarin) is reported as “small reduction”. For the same compound, the “outcome compared with warfarin” value (patients with nonvalvular AF) was “superior to warfarin”.

On to `[H]/N=C(/N)c1ccc(NCc2nc3cc(C(=O)N(CCC(=O)O)c4ccccn4)ccc3n2C)cc1` [dabigatran], for which the “accumulation of the drug” value in data set [1] (daily doses of approximately 150-300 mg) is “approximately 1.7 fold”. The “elimination via the kidney as share of total clearance” value in data set [1] (in vivo) is listed as 80%. Besides, the “remainder going into the faeces” value in data set [1] (oral) is on record as approximately 90%. Moreover, the “relationship between maximal plasma level and dose administered” value in data set [1] (single dose) is “linear relationship”. Moreover, the “effect of food on total absorption” value in data set [1] (with food) is listed as “does not affect”. Also, the “Change in Drug Level Exposure (AUC), increase” value in data set [2] (Amiodarone) was 12% increase; in data set [2] (South Asians compared to other ethnicities) it was ~26% increase in South Asians compared to other ethnicities; in data set [2] (Verapamil), 23% increase; in data set [2] (females compared to men) it was ~9% increase in females compared to men; in data set [2] (patients with HF) it was ~7% increase in patients with HF. Moreover, the “Change in Drug Level Exposure (AUC)” value in data set [2] (CrCl = 30, relative to median CrCl of 69) was 1.8 fold; in data set [2] (CrCl = 50, relative to median CrCl of 69), 1.3 fold. The “Change in Drug Level Exposure (AUC), decrease” value in data set [2] (PPIs) is approximately 13% decrease. In addition, the “increase in distribution volume (Vd)” value in data set [2] (above 80 kg) is 0.8 % per kg. Further, in data set [2] (coadministration of Asprin, clopidogrel), the “Change in activity: bleeding” value is given as “Coadministration will increase chance of bleeding”. The “effect of low weight on Cmax” value in data set [2] (low weight) is listed as “will increase”. Further, the “Change in Drug Level Exposure (AUC), increase per year of age” value in data set [2] (older compared to 72 yr) is recorded as 0.41% increase per year older compared to 72 yr % per year.
